“And” between values parts separate entries of the source, which are not always exact repeats. Equal values may be shown once.
Key:
[1] = molecular target: T1, UDP-glucuronosyltransferase 2B7 (Homo sapiens, UniProt P16662); test: Specific activity of expressed human recombinant UGT2B7Y; type: ADME; details: recombinant enzyme
T1 sequence (P16662 whole entry): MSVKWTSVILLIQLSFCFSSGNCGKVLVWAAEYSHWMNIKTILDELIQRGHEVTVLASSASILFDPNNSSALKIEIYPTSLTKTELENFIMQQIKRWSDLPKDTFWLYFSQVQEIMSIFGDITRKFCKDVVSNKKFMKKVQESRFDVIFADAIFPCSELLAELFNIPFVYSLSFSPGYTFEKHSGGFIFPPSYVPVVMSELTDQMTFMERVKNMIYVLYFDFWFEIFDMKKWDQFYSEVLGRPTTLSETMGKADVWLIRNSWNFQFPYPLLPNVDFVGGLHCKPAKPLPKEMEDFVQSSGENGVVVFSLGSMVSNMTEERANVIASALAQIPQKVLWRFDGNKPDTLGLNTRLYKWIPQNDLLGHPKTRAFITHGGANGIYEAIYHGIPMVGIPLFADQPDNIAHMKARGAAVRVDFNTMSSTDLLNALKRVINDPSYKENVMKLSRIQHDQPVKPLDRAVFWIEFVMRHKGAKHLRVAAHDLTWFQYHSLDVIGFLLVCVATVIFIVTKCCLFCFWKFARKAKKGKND

[2] = molecular target: T1, UDP-glucuronosyltransferase 2B7; test: Specific activity of expressed human recombinant UGT2B7H; type: ADME; details: recombinant enzyme

Row | SMILES | Activity [1] | Activity [2]
1 | C[C@]12CC[C@H]3[C@@H](CCC4=CC(=O)CC[C@@]43C)[C@@H]1CC[C@H]2O [EPITESTOSTERONE] | 468 pm/min/mg and 240 pm/min/mg | 360 pm/min/mg
2 | C=C1CC[C@@]2(O)[C@H]3Cc4ccc(O)c5c4[C@@]2(CCN3CC2CC2)[C@H]1O5 | 625 pm/min/mg | 380 pm/min/mg and 412 pm/min/mg
3 | C[C@]12CC[C@H]3[C@@H](CCC4=CC(=O)CC[C@@]43C)[C@@H]1CC[C@@H]2O (stereo in doubt; form 2) [TESTOSTERONE] | 0 pm/min/mg | 0 pm/min/mg
4 | Oc1ccc2c3c1O[C@H]1[C@@H](O)CC[C@@]4(O)[C@@H](C2)N(CC2CCC2)CC[C@]314 [NALBUPHINE] | 1100 pm/min/mg | 758 pm/min/mg and 862 pm/min/mg
5 | C=CCN1CC[C@]23c4c5ccc(O)c4O[C@H]2[C@@H](O)C=C[C@H]3[C@H]1C5 [NALORPHINE] | – | 1483 pm/min/mg and 1051 pm/min/mg
6 | O=C1CC[C@@]2(O)[C@H]3Cc4ccc(O)c5c4[C@@]2(CCN3CC2CC2)[C@H]1O5 [NALTREXONE] | – | 670 pm/min/mg and 662 pm/min/mg
7 | CN1CC[C@]23c4c5ccc(O)c4O[C@H]2C(=O)CC[C@@]3(O)[C@H]1C5 [OXYMORPHONE] | 2300 pm/min/mg | 2944 pm/min/mg and 3139 pm/min/mg
8 | CC1(C)[C@H]2CC[C@]1(C)[C@H](O)C2 [(-)-BORNEOL] | 357 pm/min/mg and 174 pm/min/mg | 388 pm/min/mg and 227 pm/min/mg
9 | C[C@]12CC[C@@H](O)C[C@@H]1CC[C@@H]1[C@@H]2CC[C@]2(C)C(=O)CC[C@@H]12 (stereo in doubt; form 1) [ANDROSTERONE] | 94 pm/min/mg | 114 pm/min/mg
10 | CN1CC[C@]23c4c5ccc(O)c4O[C@H]2C(=O)CC[C@H]3[C@H]1C5 (stereo in doubt; form 1) [HYDROMORPHONE] | 530 pm/min/mg | 617 pm/min/mg and 856 pm/min/mg
11 | CN1CC[C@]23c4c5ccc(O)c4O[C@H]2[C@@H](O)C=C[C@H]3[C@H]1C5 (stereo in doubt; (+)) [MORPHINE] | 160 pm/min/mg | –
12 | Oc1ccc2c3c1O[C@H]1c4[nH]c5ccccc5c4C[C@@]4(O)[C@@H](C2)N(CC2CC2)CC[C@]314 [NALTRINDOLE] | 453 pm/min/mg | 349 pm/min/mg and 456 pm/min/mg
13 | Oc1ccc2c3c1O[C@H]1c4oc5ccccc5c4C[C@@]4(O)[C@@H](C2)N(CC2CC2)CC[C@]314 [NALTRIBEN] | 150 pm/min/mg and 97 pm/min/mg | 0 pm/min/mg
14 | COc1ccc2c3c1O[C@H]1[C@@H](O)C=C[C@H]4[C@@H](C2)N(C)CC[C@@]341 [CODEINE] | – | 80 pm/min/mg and 54 pm/min/mg
15 | CN1CC[C@]23c4c5ccc(O)c4O[C@H]2C(=O)CC[C@H]3[C@H]1C5 (stereo in doubt; form 2) [HYDROMORPHONE] | 1550 pm/min/mg | –
16 | CO[C@]12CC[C@@]3(C[C@@H]1[C@](C)(O)C(C)(C)C)[C@H]1Cc4ccc(O)c5c4[C@@]3(CCN1CC1CC1)[C@H]2O5 [BUPRENORPHINE] | – | 478 pm/min/mg and 280 pm/min/mg
17 | Oc1ccc2c3c1O[C@H]1[C@@H](O)C=C[C@H]4[C@@H](C2)NCC[C@@]341 [NORMORPHINE] | 80 pm/min/mg | –
18 | C=CCN1CC[C@]23c4c5ccc(O)c4O[C@H]2C(=O)CC[C@@]3(O)[C@H]1C5 [NALOXONE] | – | 2908 pm/min/mg and 3462 pm/min/mg
19 | CN1CC[C@]23c4c5ccc(O)c4O[C@H]2[C@@H](O)C=C[C@H]3[C@H]1C5 (stereo in doubt; (-)) [MORPHINE] | 3719 pm/min/mg | 2536 pm/min/mg and 2968 pm/min/mg
20 | CC1CC[C@H](C(C)C)[C@@H](O)C1 (stereo partly drawn) [(+)-MENTHOL] | 247 pm/min/mg and 147 pm/min/mg | 255 pm/min/mg and 191 pm/min/mg
21 | CN1CC[C@]23CCCC[C@H]2[C@H]1Cc1ccc(O)cc13 [LEVORPHANOL] | 33 pm/min/mg and 25 pm/min/mg | –
22 | COc1ccc2c3c1O[C@H]1[C@@H](O)C=C[C@H]4[C@@H](C2)NCC[C@@]341 [NORCODEINE] | 29 pm/min/mg and 24 pm/min/mg | –

Source: ChEMBL document CHEMBL1907987, “Human UDP-glucuronosyltransferases: metabolism, expression, and disease” (Annu Rev Pharmacol Toxicol, 2000)
